{"source": "PubChem BioAssay (NCI)", "assay_in_all_cases": "DTP human tumour cell line panel, 48 h", "key": {"IGROV1 ovarian": {"tested_on": "IGROV1 ovarian"}, "HL-60(TB) leukemia": {"tested_on": "HL-60(TB) leukemia"}, "U251 CNS": {"tested_on": "U251 CNS"}, "TK-10 renal": {"tested_on": "TK-10 renal"}, "HCC-2998 colon": {"tested_on": "HCC-2998 colon"}, "UO-31 renal": {"tested_on": "UO-31 renal"}, "NCI/ADR-RES ovarian": {"tested_on": "NCI/ADR-RES ovarian"}, "SF-268 CNS": {"tested_on": "SF-268 CNS"}, "OVCAR-4 ovarian": {"tested_on": "OVCAR-4 ovarian"}, "CCRF-CEM leukemia": {"tested_on": "CCRF-CEM leukemia"}, "SK-MEL-5 melanoma": {"tested_on": "SK-MEL-5 melanoma"}, "COLO 205 colon": {"tested_on": "COLO 205 colon"}, "A549 NSCLC": {"tested_on": "A549 NSCLC"}, "T-47D breast": {"tested_on": "T-47D breast"}, "SNB-19 CNS": {"tested_on": "SNB-19 CNS"}, "EKVX NSCLC": {"tested_on": "EKVX NSCLC"}, "CAKI-1 renal": {"tested_on": "CAKI-1 renal"}, "NCI-H460 lung": {"tested_on": "NCI-H460 lung"}, "SW-620 colon": {"tested_on": "SW-620 colon"}, "A498 renal": {"tested_on": "A498 renal"}, "PC-3 prostate": {"tested_on": "PC-3 prostate"}, "786-0 renal": {"tested_on": "786-0 renal"}, "HT29 colon": {"tested_on": "HT29 colon"}, "NCI-H23 lung": {"tested_on": "NCI-H23 lung"}, "DU-145 prostate": {"tested_on": "DU-145 prostate"}, "HS 578T breast": {"tested_on": "HS 578T breast"}, "HOP-62 NSCLC": {"tested_on": "HOP-62 NSCLC"}, "SF-295 CNS": {"tested_on": "SF-295 CNS"}}, "note": "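Results reflect a 48-hour exposure of cells in 96-well plates to compound at five concentrations. GI50 is the concentration that inhibits growth by half. At the TGI there is no net growth.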", "data": [{"smiles": "COc1ccc(-n2nnnc2-c2c[nH]c3c(F)cc(F)cc23)cc1", "values": [{"measurement": "GI50", "setting": "IGROV1 ovarian", "value": "> 100", "unit": "µM"}, {"measurement": "TGI", "setting": "IGROV1 ovarian", "value": "> 100", "unit": "µM"}, {"measurement": "GI50", "setting": "HL-60(TB) leukemia", "value": "> 100", "unit": "µM"}, {"measurement": "TGI", "setting": "HL-60(TB) leukemia", "value": "> 100", "unit": "µM"}, {"measurement": "GI50", "setting": "U251 CNS", "value": 32.2, "unit": "µM"}, {"measurement": "TGI", "setting": "U251 CNS", "value": "> 100", "unit": "µM"}, {"measurement": "GI50", "setting": "TK-10 renal", "value": "> 100", "unit": "µM"}, {"measurement": "TGI", "setting": "TK-10 renal", "value": "> 100", "unit": "µM"}, {"measurement": "GI50", "setting": "HCC-2998 colon", "value": "> 100", "unit": "µM"}, {"measurement": "TGI", "setting": "HCC-2998 colon", "value": "> 100", "unit": "µM"}, {"measurement": "GI50", "setting": "UO-31 renal", "value": 54, "unit": "µM"}, {"measurement": "TGI", "setting": "UO-31 renal", "value": "> 100", "unit": "µM"}, {"measurement": "GI50", "setting": "NCI/ADR-RES ovarian", "value": 40.6, "unit": "µM"}, {"measurement": "TGI", "setting": "NCI/ADR-RES ovarian", "value": "> 100", "unit": "µM"}, {"measurement": "GI50", "setting": "SF-268 CNS", "value": 40.3, "unit": "µM"}, {"measurement": "TGI", "setting": "SF-268 CNS", "value": "> 100", "unit": "µM"}, {"measurement": "GI50", "setting": "OVCAR-4 ovarian", "value": 55, "unit": "µM"}, {"measurement": "TGI", "setting": "OVCAR-4 ovarian", "value": "> 100", "unit": "µM"}, {"measurement": "GI50", "setting": "CCRF-CEM leukemia", "value": "> 100", "unit": "µM"}, {"measurement": "TGI", "setting": "CCRF-CEM leukemia", "value": "> 100", "unit": "µM"}, {"measurement": "GI50", "setting": "SK-MEL-5 melanoma", "value": "> 100", "unit": "µM"}, {"measurement": "TGI", "setting": "SK-MEL-5 melanoma", "value": "> 100", "unit": "µM"}, {"measurement": "GI50", "setting": "COLO 205 colon", "value": "> 100", "unit": "µM"}, {"measurement": "TGI", "setting": "COLO 205 colon", "value": "> 100", "unit": "µM"}, {"measurement": "GI50", "setting": "A549 NSCLC", "value": "> 100", "unit": "µM"}, {"measurement": "TGI", "setting": "A549 NSCLC", "value": "> 100", "unit": "µM"}, {"measurement": "GI50", "setting": "T-47D breast", "value": "> 100", "unit": "µM"}, {"measurement": "TGI", "setting": "T-47D breast", "value": "> 100", "unit": "µM"}, {"measurement": "GI50", "setting": "SNB-19 CNS", "value": 75.5, "unit": "µM"}, {"measurement": "TGI", "setting": "SNB-19 CNS", "value": "> 100", "unit": "µM"}, {"measurement": "GI50", "setting": "EKVX NSCLC", "value": "> 100", "unit": "µM"}, {"measurement": "TGI", "setting": "EKVX NSCLC", "value": "> 100", "unit": "µM"}, {"measurement": "GI50", "setting": "CAKI-1 renal", "value": "> 100", "unit": "µM"}, {"measurement": "TGI", "setting": "CAKI-1 renal", "value": "> 100", "unit": "µM"}, {"measurement": "GI50", "setting": "NCI-H460 lung", "value": "> 100", "unit": "µM"}, {"measurement": "TGI", "setting": "NCI-H460 lung", "value": "> 100", "unit": "µM"}, {"measurement": "GI50", "setting": "SW-620 colon", "value": "> 100", "unit": "µM"}, {"measurement": "TGI", "setting": "SW-620 colon", "value": "> 100", "unit": "µM"}, {"measurement": "GI50", "setting": "A498 renal", "value": 36.5, "unit": "µM"}, {"measurement": "TGI", "setting": "A498 renal", "value": "> 100", "unit": "µM"}, {"measurement": "GI50", "setting": "PC-3 prostate", "value": "> 100", "unit": "µM"}, {"measurement": "TGI", "setting": "PC-3 prostate", "value": "> 100", "unit": "µM"}, {"measurement": "GI50", "setting": "786-0 renal", "value": 31.5, "unit": "µM"}, {"measurement": "TGI", "setting": "786-0 renal", "value": "> 100", "unit": "µM"}, {"measurement": "GI50", "setting": "HT29 colon", "value": "> 100", "unit": "µM"}, {"measurement": "TGI", "setting": "HT29 colon", "value": "> 100", "unit": "µM"}, {"measurement": "GI50", "setting": "NCI-H23 lung", "value": "> 100", "unit": "µM"}, {"measurement": "TGI", "setting": "NCI-H23 lung", "value": "> 100", "unit": "µM"}, {"measurement": "GI50", "setting": "DU-145 prostate", "value": "> 100", "unit": "µM"}, {"measurement": "TGI", "setting": "DU-145 prostate", "value": "> 100", "unit": "µM"}, {"measurement": "GI50", "setting": "HS 578T breast", "value": "> 100", "unit": "µM"}, {"measurement": "TGI", "setting": "HS 578T breast", "value": "> 100", "unit": "µM"}, {"measurement": "GI50", "setting": "HOP-62 NSCLC", "value": 37.5, "unit": "µM"}, {"measurement": "TGI", "setting": "HOP-62 NSCLC", "value": "> 100", "unit": "µM"}, {"measurement": "GI50", "setting": "SF-295 CNS", "value": 24, "unit": "µM"}, {"measurement": "TGI", "setting": "SF-295 CNS", "value": 59.6, "unit": "µM"}]}]}
